Like-named read-outs stand apart in the source and are kept apart here.
What was measured:
Type in all cases: cell-based
RS4;11 cells = test: Cell proliferation assay, RS4;11 cells (MTS, 72 h); settings: Homo sapiens, RS4;11 cell proliferation
Protocol: MTS testing kit was purchased from Promega. The RPMI-1640, Fetal bovine serum and Penicillin-Streptomycin were purchased from Gibco. Dimethyl sulfoxide (DMSO) was purchased from Sigma.
To investigate whether a compound is able to inhibit the activity of Bcl-2 in cells, a mechanism-based assay using RS4;11 (ATCC® CRL-1873™) cell was developed. In this assay, inhibition of Bcl-2 was detected by the inhibition of RS4;11 cells proliferation. RS4;11 cells were cultured in culture flasks to 40-80% confluence in RPMI-1640 plus 10% fetal bovine serum. Cells were collected and plated onto 96-well plates at desired cell density (30000 cells/well). Plates were incubated overnight at 37° C., with 5% CO2 to adhere. Compounds were added to the plates, and the final compound concentrations were 10000, 3333, 1111, […], 41, 14, 4.6 and 1.5 nM. Plates plated with RS4;11 cells were placed at 37° C., with 5% CO2 for 72 h. 20 μl MTS/100 μl medium mixture solution were added to each well and incubate the plates for exactly 2 hours. The reaction was stopped by adding 25 μl 10% SDS per well. Measure absorbance at 490 nm and 650 nm (reference wavelength). IC50 was calculated using GraphPad Prism 5.0.

Toledo cells = test: Cell proliferation assay, Toledo cells (MTS, 72 h); settings: Toledo cells, MTS, read-out: Toledo IC50
In short: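 IC50 was derived from 490 nm absorbance after a 2 h MTS step. Before that, compounds at 1.5–10000 nM final (nine points) acted on Toledo cells for 72 h at 37 °C, 5% CO2. Cells were seeded at 30000/well in 10% FBS RPMI-1640 and rested 4 h before dosing.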

RS4;11-BCL-2 F104L cells = test: Cell proliferation assay, engineered RS4;11 cells stably overexpressing BCL-2 F104L (MTS, 168 h); settings: read-out: RS4, 11 BCL2-F104L
In short: (§1)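 Proliferation read-out: MTS for exactly 2 h, then absorbance at 490 nm, with IC50 derived from the fit. Before this, engineered RS4;11 lines (BCL-2 G101V, F104L; 5000 cells/well) were exposed 168 h at 37 °C to serially diluted compound, final 1.4–10000 nM.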

RS4;11-BCL-2 G101V cells = test: Cell proliferation assay, engineered RS4;11 cells stably overexpressing BCL-2 G101V (MTS, 168 h); settings: read-out: RS4, 11 BCL2- G101V
In short: as §1

## CC1(O)CCC(CNc2ncc(S(=O)(=O)NC(=O)c3ccc(N4CCC5(CC4)CC(N4CCC[C@H]4c4ccccc4C4CC4)C5)cc3Oc3cnc4[nH]ccc4c3)cc2[N+](=O)[O-])CC1 (stereo partly drawn) [Example A-1a, (S)-2-((1H-pyrrolo[2,3-b]pyridin-5-yl)oxy)-4-(2-(2-(2-cyclopropylphenyl)pyrrolidin-1-yl)-7-azaspiro[3.5]nonan-7-yl)-N-((6-(((4-hydroxy-4-methylcyclohexyl)methyl)amino)-5-nitropyridin-3-yl)sulfonyl)benzamide]
RS4;11 cells
  IC50: ≤ 1 nM

## O=C(NS(=O)(=O)c1cnc(NCC2CCOCC2)c([N+](=O)[O-])c1)c1ccc(N2CCC3(CC2)CC(N2CCNC[C@H]2c2ccccc2C2CC2)C3)cc1Oc1cnc2[nH]ccc2c1 (single isomer, unassigned) [Example A-36a, (R or S)-2-((1H-pyrrolo[2,3-b]pyridin-5-yl)oxy)-4-(2-(2-(2-cyclopropyl-phenyl)piperazin-1-yl)-7-azaspiro [3.5]nonan-7-yl)-N-((5-nitro-6-(((tetrahydro-2H-pyran-4-yl)methyl)amino)pyridin-3-yl)sulfonyl) benzamide]
RS4;11 cells
  IC50: ≤ 1 nM

## O=C(NS(=O)(=O)c1cnc(NCC2C3COCC23)c([N+](=O)[O-])c1)c1ccc(N2CCC3(CC2)CC(N2CCC[C@H]2c2ccccc2C2CC2)C3)cc1Oc1cnc2[nH]ccc2c1 (some centres unmarked) [Example A-30a, 2-((1H-pyrrolo[2,3-b]pyridin-5-yl)oxy)-N-((6-(((3-oxabicyclo[3.1.0]hexan-6-yl)methyl)amino)-5-nitro-pyridin-3-yl)sulfonyl)-4-(2-((5)-2-(2-cyclopropylphenyl)pyrrolidin-1-yl)-7-azaspiro[3.5]nonan-7-yl) benzamide]
RS4;11 cells
  IC50: ≤ 1 nM

## CCc1ccccc1[C@@H]1CCCN1C1CC2(CCN(c3ccc(C(=O)NS(=O)(=O)c4cnc(NCC5CCC(C)(O)CC5)c([N+](=O)[O-])c4)c(Oc4cnc5[nH]ccc5c4)c3)CC2)C1 (stereo partly drawn) [Example A-8a, (S)-2-((1H-pyrrolo[2,3-b]pyridin-5-yl)oxy)-4-(2-(2-(2-ethylphenyl)pyrrolidin-1-yl)-7-azaspiro[3.5]nonan-7-yl)-N-((6-(((4-hydroxy-4-methylcyclohexyl)methyl)amino)-5-nitropyridin-3-yl)sulfonyl) benzamide]
RS4;11 cells
  IC50: ≤ 1 nM

## O=C(NS(=O)(=O)c1cnc(NCC2CCSCC2)c([N+](=O)[O-])c1)c1ccc(N2CCC3(CC2)CC(N2CCOC[C@H]2c2ccccc2C2CC2)C3)cc1Oc1cnc2[nH]ccc2c1 (single isomer, unassigned) [Example A-98, (R or S)-2-((1H-pyrrolo[2,3-b]pyridin-5-yl)oxy)-4-(2-(3-(2-cyclopropyl-phenyl)morpholino)-7-azaspiro[3.5]nonan-7-yl)-N-((5-nitro-6-(((tetra-hydro-2H-thiopyran-4-yl)methyl)amino)pyridin-3-yl)sulfonyl) benzamide]
RS4;11 cells
  IC50: ≤ 1 nM

## CS(C)(=O)=NC1CCC(CNc2ncc(S(=O)(=O)NC(=O)c3ccc(N4CCC5(CC4)CC(N4CCC[C@@H]4c4ccccc4C4CC4)C5)cc3Oc3cnc4[nH]ccc4c3)cc2[N+](=O)[O-])CC1 (single isomer, unassigned) [Example A-9b, (R or S)-2-((1H-pyrrolo[2,3-b]pyridin-5-yl)oxy)-4-(2-(2-(2-cyclopropyl-phenyl)pyrrolidin-1-yl)-7-azaspiro [3.5]nonan-7-yl)-N-((6-(((4-((dimethyl(oxo)-λ^6-sulfanylidene)amino)cyclohexyl)methyl)amino)-5-nitropyridin-3-yl)sulfonyl)benzamide]
RS4;11 cells
  IC50: ≤ 1 nM

## CC(C)c1ccccc1[C@@H]1CCCN1C1CC2(CCN(c3ccc(C(=O)NS(=O)(=O)c4cnc(NCC5CCC(C)(O)CC5)c([N+](=O)[O-])c4)c(Oc4cnc5[nH]ccc5c4)c3)CC2)C1 (some centres unmarked) [Example A-6a, (5)-2-((1H-pyrrolo[2,3-b]pyridin-5-yl)oxy)-N-((6-(((4-hydroxy-4-methylcyclohexyl)methyl)amino)-5-nitropyridin-3-yl)sulfonyl)-4-(2-(2-(2-isopropylphenyl)pyrrolidin-1-yl)-7-azaspiro[3.5]nonan-7-yl) benzamide]
RS4;11 cells
  IC50: ≤ 1 nM

## CCOc1nc2[nH]cc(F)c2cc1Oc1cc(N2CCC3(CC2)CN([C@H]2CCC[C@H]2c2ccccc2C(C)C)C3)ccc1C(=O)NS(=O)(=O)c1cnc(NC[C@H]2CC[C@](C)(O)CC2)c([N+](=O)[O-])c1 (relative stereo) [Example A-153, 2-((6-ethoxy-3-fluoro-1H-pyrrolo[2,3-b]pyridin-5-yl)oxy)-N-((6-(((1r,4r)-4-hydroxy-4-methylcyclohexyl)methyl)amino)-5-nitropyridin-3-yl) sulfonyl)-4-(2-((1S,2S or 1R,2R)-2-(2-isopropylphenyl)cyclo-pentyl)-2,7-diazaspiro[3.5]nonan-7-yl) benzamide]
Toledo cells; Homo sapiens
  IC50: 1 nM
RS4;11-BCL-2 F104L cells; Homo sapiens
  IC50: 6 nM
RS4;11-BCL-2 G101V cells; Homo sapiens, RS4-11, 168 h
  IC50: 25 nM

## CC(C)c1ccccc1[C@@H]1CCCN1C1CC2(CCN(c3ccc(C(=O)NS(=O)(=O)c4cnc(NCC5C6COCC56)c([N+](=O)[O-])c4)c(Oc4cnc5[nH]ccc5c4)c3)CC2)C1 (stereo in doubt) [Example A-27a, 2-((1H-pyrrolo[2,3-b]pyridin-5-yl)oxy)-N-((6-(((3-oxabicyclo[3.1.0]hexan-6-yl)methyl)amino)-5-nitro-pyridin-3-yl)sulfonyl)-4-(2-((5)-2-(2-isopropylphenyl)pyrrolidin-1-yl)-7-azaspiro[3.5]nonan-7-yl) benzamide]
RS4;11 cells
  IC50: ≤ 1 nM

## 2-((3-fluoro-6-methoxy-1H-pyrrolo [2,3-b]pyridin-5-yl)oxy)-N-(((S)- 3-((1r,4S)-4-hydroxy-4- methylcyclohexyl)- 5-nitro-3,4-dihydro- 2H-benzo[b][1,4]oxazin-7-yl) sulfonyl)-4-(2-((1S,2S or 1R,2R)- 2-(2-isopropylphenyl) cyclopentyl)-2,7-diazaspiro[3.5] nonan-7-yl)benzamide [Example D-102]
Toledo cells
  IC50: 1 nM
RS4;11-BCL-2 F104L cells
  IC50: 1 nM
RS4;11-BCL-2 G101V cells
  IC50: 16 nM

## CC(C)c1ccccc1[C@@H]1CCCN1C1CC2(CCN(c3ccc(C(=O)NS(=O)(=O)c4cc5c(c([N+](=O)[O-])c4)N[C@@H]([C@H]4CC[C@](C)(O)CC4)CO5)c(Oc4cc5cc[nH]c5nc4OC[C@@H]4CCCN4C)c3)CC2)C1 (single isomer, unassigned) [Example D-131, N-(((S)-3-((1r,4S)-4-hydroxy-4-methylcyclohexyl)-5-nitro-3,4-dihydro-2H-benzo[b][1,4]oxazin-7-yl)sulfonyl)-4-(2-((R or S)-2-(2-isopropylphenyl)pyrrolidin-1-yl)-7-azaspiro[3.5]nonan-7-yl)-2-((6-(((S)-1-methylpyrrolidin-2-yl)methoxy)-1H-pyrrolo[2,3-b]pyridin-5-yl)oxy)benzamide]
Toledo cells; Homo sapiens
  IC50: 1 nM
RS4;11-BCL-2 F104L cells; Homo sapiens
  IC50: 1 nM
RS4;11-BCL-2 G101V cells; Homo sapiens, RS4-11, 168 h
  IC50: 1 nM

## CCOc1nc2[nH]ccc2cc1Oc1cc(N2CCC3(CC2)CC(N2CCC[C@H]2c2ccccc2C(C)C)C3)ccc1C(=O)NS(=O)(=O)c1cc2c(c([N+](=O)[O-])c1)N[C@@H]([C@H]1CC[C@](C)(O)CC1)CO2 (single isomer, unassigned) [Example D-65, 2-((6-ethoxy-1H-pyrrolo[2,3-b]pyridin-5-yl)oxy)-N-(((5)-3-((1r,4S)-4-hydroxy-4-methylcyclohexyl)-5-nitro-3,4-dihydro-2H-benzo[b] [1,4]oxazin-7-yl)sulfonyl)-4-(2-((R or S)-2-(2-isopropylphenyl)pyrrolidin-1-yl)-7-azaspiro[3.5]nonan-7-yl)benzamide]
Toledo cells; Homo sapiens
  IC50: 1 nM
RS4;11-BCL-2 F104L cells; Homo sapiens
  IC50: 20 nM
RS4;11-BCL-2 G101V cells; Homo sapiens, RS4-11, 168 h
  IC50: 1 nM
